Source: patent publication US10130674B2, “Modified peptide that reduces pain in peripheral neuropathy” (Creative Bio-Peptides, priority 2010, dated 2018)

Columns and labels:
[1] = data not shown
[2] = data not shown; remark: listed apart in the source
CCR5 = CCR5 (Homo sapiens, UniProt P51681); settings: cited from earlier work
[3] = test system: CCR5-specific virus (HIVBaL); test: In vitro CCR5 receptor viral infectivity assay (GHOST R5 reporter cells); format: cell-based, HIV; settings: GFP reporter
Experimental: This virus uses CCR5 receptor binding to infect its host cell.
In Vitro CCR5 Receptor Viral Infectivity Assay
A CCR5-specific virus (HIVBaL) was added 1 hr later. CCR5 receptor viral infectivity was tested on CCR5-containing cells with a Green Fluorescent Protein (GFP) reporter that responds to viral infection.
The experiment, which was repeated 5 times in various cell systems, was performed in triplicate and bars correspond to standard error of the mean. Data were analyzed by a nonlinear fit using GraphPad Prism 5.

[4] = Nerve damage neuropathic pain, DAPTA pilot study; format: in vivo, rat

Sequence of CCR5 (P51681 whole entry): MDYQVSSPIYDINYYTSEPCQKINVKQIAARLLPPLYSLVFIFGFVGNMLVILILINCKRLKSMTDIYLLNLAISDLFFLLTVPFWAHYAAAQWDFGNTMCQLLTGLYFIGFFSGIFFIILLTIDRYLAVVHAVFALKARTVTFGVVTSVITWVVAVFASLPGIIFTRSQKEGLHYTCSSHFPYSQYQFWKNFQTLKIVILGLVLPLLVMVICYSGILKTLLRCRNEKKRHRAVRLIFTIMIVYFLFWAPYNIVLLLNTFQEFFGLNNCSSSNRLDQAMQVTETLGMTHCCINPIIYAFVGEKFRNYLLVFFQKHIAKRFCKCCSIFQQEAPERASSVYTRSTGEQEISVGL

Row | Compound | paw withdrawal latency in naïve animals [1] | paw withdrawal threshold in naïve animals [2] | affinity for R5 (CCR5) | block of infection by CCR5 using virus (HIVBaL) [3] | neuropathic pain development ([4]; pilot study, 0.01 mg/kg, not shown) | pain in the paw ipsilateral to nerve damage ([4]; rats)
1 | C[C@H](O)[C@@H](N)C(=O)N[C@@H](C(=O)N[C@H](CC(N)=O)C(=O)N[C@H](Cc1ccc(O)cc1)C(=O)N[C@@H](C(=O)O)[C@H](C)O)[C@H](C)O [All D TTNYT] | did not alter | did not alter |  |  |  | 
2 | D-Ala-Peptide T-amide [DAPTA] |  |  | femtomolar range | block CCR5 receptors | inhibited neuropathic pain development | attenuated pain
